Literature values in patent US20160120822A1, “COMPOSITION CONTAINING ROTIGOTINE AND USE THEREOF AND TRANSDERMAL PATCH CONTAINING THE COMPOSITION” (Jiangsu Kangbeide Pharmaceuticals Co. Ltd., priority 2007, published 2016).

Conditions: oral formulations

CCCN(CCc1cccs1)[C@H]1CCc2c(O)cccc2C1 [Rotigotine]
clearance after oral intake: overly high
duration of action after oral intake: relatively short
